Source: ChEMBL document CHEMBL5233249, “Recent advancements in the development of heterocyclic anti-inflammatory agents” (Eur J Med Chem, 2020)

Legend:
Rattus norvegicus [1] = assay: Anti-inflammatory activity against formalin-induced foot paw edema in PO dosed rat at 10 mg/kg assessed as reduction in volume of edema measured after 5 hr relative to control; assay type: functional; set-up: scale not given: the % may be the effect or the level left
Rattus norvegicus [2] = assay: Anti-ulcerative activity in aspirin induced Wistar rat ulcer model assessed as inhibition of ulcer index at 20 mg/kg,po; assay type: functional
[3] = Selectivity index, ratio of IC50 for ovine COX1 to IC50 for recombinant human COX2
Rattus norvegicus [4] = assay: Anti-inflammatory activity against formalin-induced foot paw edema in Wistar rat at 5 mg/kg, po assessed as inhibition of edema measured after 4 hr relative to control; assay type: functional
[5] = biological target: T1, Prostaglandin G/H synthase 2 (Homo sapiens, UniProt P35354); assay: Inhibition of COX-2 (unknown origin) at 10 uM
T1 sequence (P35354 whole entry): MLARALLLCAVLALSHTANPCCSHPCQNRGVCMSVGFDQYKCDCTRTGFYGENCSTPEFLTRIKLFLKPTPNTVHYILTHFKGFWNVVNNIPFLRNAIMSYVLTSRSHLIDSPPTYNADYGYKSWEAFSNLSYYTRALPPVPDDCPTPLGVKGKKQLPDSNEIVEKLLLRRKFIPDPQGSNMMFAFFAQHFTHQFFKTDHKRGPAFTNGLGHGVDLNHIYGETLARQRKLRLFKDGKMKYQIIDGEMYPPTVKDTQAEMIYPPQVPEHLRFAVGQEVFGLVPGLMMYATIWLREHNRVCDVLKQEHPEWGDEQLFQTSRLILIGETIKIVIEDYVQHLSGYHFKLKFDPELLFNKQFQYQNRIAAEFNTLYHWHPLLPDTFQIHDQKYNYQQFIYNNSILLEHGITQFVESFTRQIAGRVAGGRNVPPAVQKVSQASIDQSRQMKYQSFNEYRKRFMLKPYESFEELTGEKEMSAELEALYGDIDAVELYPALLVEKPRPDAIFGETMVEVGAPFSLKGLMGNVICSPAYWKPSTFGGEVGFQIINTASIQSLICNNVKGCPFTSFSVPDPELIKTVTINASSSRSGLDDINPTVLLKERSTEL

Mus musculus [6] = assay: Anti-inflammatory activity in Carrageenan-induced paw edema mouse model assessed as inhibition of granuloma measured after 24 hrs relative to control; assay type: functional
[7] = biological target: T1, Prostaglandin G/H synthase 2; assay: Inhibition of COX-2 (unknown origin) assessed as inhibition at 10 uM
[8] = biological target: Prostaglandin G/H synthase 1 (Homo sapiens, UniProt P23219); assay: Inhibition of COX-1 (unknown origin) at 40 uM relative to control
Sequence of Prostaglandin G/H synthase 1 (P23219 whole entry): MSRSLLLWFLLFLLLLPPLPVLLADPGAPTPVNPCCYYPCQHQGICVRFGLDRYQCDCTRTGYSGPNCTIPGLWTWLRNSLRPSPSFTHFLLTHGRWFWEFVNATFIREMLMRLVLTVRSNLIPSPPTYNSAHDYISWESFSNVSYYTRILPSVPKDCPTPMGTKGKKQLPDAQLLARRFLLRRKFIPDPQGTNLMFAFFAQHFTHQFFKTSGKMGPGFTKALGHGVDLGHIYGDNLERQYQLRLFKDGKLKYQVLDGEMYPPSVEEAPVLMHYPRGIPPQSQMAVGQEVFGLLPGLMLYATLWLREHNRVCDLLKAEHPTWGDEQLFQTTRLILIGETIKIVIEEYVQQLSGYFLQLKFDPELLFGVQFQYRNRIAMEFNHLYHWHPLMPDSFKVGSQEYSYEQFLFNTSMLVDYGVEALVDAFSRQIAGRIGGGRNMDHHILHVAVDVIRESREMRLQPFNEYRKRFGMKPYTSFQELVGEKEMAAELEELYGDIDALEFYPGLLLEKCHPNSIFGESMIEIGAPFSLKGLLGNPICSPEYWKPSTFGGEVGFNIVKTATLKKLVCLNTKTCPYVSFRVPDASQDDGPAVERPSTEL

Rattus norvegicus [9] = assay: Anti-inflammatory activity in Carrageenan-induced-Wistar albino rat model assessed as reduction in volume of paw edema measured after 4 hrs; assay type: functional
Rattus norvegicus [10] = species: Rattus norvegicus; assay: Antinociceptive activity in Wistar rat assessed as hot-plate change in latency by hot plate test method relative to control; assay type: organism-based; conditions: in vivo
Rattus norvegicus [11] = assay: Anti-inflammatory activity against formalin-induced foot paw edema in PO dosed rat at 10 mg/kg assessed as inhibition of edema measured after 1 hr relative to control; assay type: functional; set-up: scale not given: the % may be the effect or the level left
Rattus norvegicus [12] = assay: Analgesic activity in Carrageenan- induced paw edema in PO dosed Swiss albino rat assessed as protection of hind paw measured after 2 hrs at 20 mg/kg relative to control; assay type: functional
[13] = biological target: T1, Prostaglandin G/H synthase 2; assay: Inhibition of COX-2 (unknown origin) at 0.1 uM
Rattus norvegicus [14] = assay: Anti-inflammatory activity in Carrageenan-induced paw edema in Wistar albino rat assessed as inhibition of paw edema measured after 6 hr relative to control; assay type: functional
Rattus norvegicus [15] = assay: Anti-inflammatory activity in Carrageenan-induced paw edema in Wistar albino rat assessed as inhibition of paw edema measured after 2 hr relative to control; assay type: functional
Rattus norvegicus [16] = assay: Anti-inflammatory activity in Carrageenan-induced paw edema in Wistar albino rat assessed as inhibition of paw edema measured after 1 hr relative to control; assay type: functional
Mus musculus [17] = assay: Anti-inflammatory activity against dimethylbenzene-induced auricular edema Kunming mouse model assessed as inhibition of ear edema at 100 mg/kg, po administered once daily relative to control; assay type: functional; set-up: scale not given: the % may be the effect or the level left
Mus musculus [18] = assay: Anti-inflammatory activity against dimethylbenzene-induced auricular edema Kunming mouse model assessed as inhibition of ear edema at 50 mg/kg, po administered once daily relative to control; assay type: functional; set-up: scale not given: the % may be the effect or the level left
Rattus norvegicus [19] = assay: Anti-inflammatory activity against formalin-induced foot paw edema in PO dosed rat at 10 mg/kg assessed as inhibition of edema measured after 4 hr relative to control; assay type: functional
Rattus norvegicus [20] = assay: Anti-inflammatory activity against Carrageenan-induced paw edema in PO dosed Wistar albino rat assessed as fold increase in inhibition of […] measured after 1 hr relative to celecoxib; assay type: functional
RAW264.7 = assay: Anti-inflammatory activity in mouse RAW264.7 cells assessed as inhibition of LPS-induced TNFalpha production measured after 24 hrs by EIA method relative to control; assay type: functional; set-up: scale not given: the % may be the effect or the level left

## CS(=O)(=O)c1ccc(-n2cc(/C=C3\NC(=S)N(c4ccccc4)C3=O)c(-c3ccccc3)n2)cc1
Rattus norvegicus [1]
  Activity: 56%
Rattus norvegicus [2]
  UI: 3.87
[3]
  Selectivity Index: 9.15

## COc1ccc(/C=C2/SC(=S)C(Nc3nc4c(cnn4-c4ccccc4)c(=O)n3-c3ccccc3)C2=O)cc1OC (stereo unspecified)
Rattus norvegicus [4]
  inhibition in vivo at 5 mg/kg: 57.4%
[5]
  IC50: 0.78 µM
Mus musculus [6]
  inhibition (INH): 38.2%
[7]
  IC50: 0.37 µM
[8]
  IC50: 3.54 µM

## Cc1nn(-c2ccccc2)c2c1C(c1ccccc1[N+](=O)[O-])C(C#N)=C(/N=C/c1ccccc1)O2 (stereo unspecified)
Rattus norvegicus [9]
  ED50: 858 µmol/kg

## CCOC(=O)c1c(SC)nn(C(=O)CSc2nnc(CCCOc3ccc(C)cc3C(=O)c3ccc(F)cc3)o2)c1N
Rattus norvegicus [10]
  Activity: 92.3%
Rattus norvegicus [11]
  Activity: 52.17%

## CC1=NN(c2ccc(F)cc2)C(=O)/C1=N\Nc1ccc(-c2nc3ccccc3[nH]2)cc1
Rattus norvegicus [12]
  Activity: 65%

## CC(=O)N(CN1C(=O)/C(=C\c2nnc(-c3ccc(-c4ccncc4)cc3)s2)c2ccccc21)C1C(c2ccc(O)cc2)=NNC1S (stereo unspecified)
[13]
  IC50: 71.1 µM
Rattus norvegicus [14]
  inhibition (INH): 57.14%
Rattus norvegicus [15]
  inhibition (INH): 10.53%
Rattus norvegicus [16]
  inhibition (INH): 20%

## c1ccc([Se]CC2CC(c3ccccc3)=NO2)cc1 (stereo unspecified)
Mus musculus [17]
  Activity: 74%
Mus musculus [18]
  Activity: 51%

## Nc1cc(-c2ccc(Cl)cc2)nn1C1=NC2C(C=NN2c2ccccc2)C(=O)N1c1ccccc1 (stereo unspecified)
Rattus norvegicus [19]
  inhibition in vivo at 10 mg/kg: 90%
Rattus norvegicus [20]
  fold change (FC): 8

## COc1cc(OC)c2c(c1)OCC/C(=C\Cc1ccccn1)C2=O
RAW264.7
  Activity: 92.5%
